The test system of assay [1] is superoxide anions generated in rat aorta. Briefly: Superoxide anion production in rat isolated aortic segments (lucigenin chemiluminescence, NADPH). The conditions noted are these: disodium salt. Type of assay: cell-based. The procedure: Superoxide anion production in rat isolated aortic segments was determined using lucigenin chemiluminescence. Aortic rings were prepared as described above and then placed in ice-cold Krebs-(N-[2-Hydroxyethyl]piperazine-N′-[2-ethanesulfonic acid] (HEPES buffer) (composition (mM); NaCl 99.0, KCl 4.7, KH2PO4 1.0, MgSO4·7H2O 1.2, D-glucose 11.0, NaHCO3 25.0, CaCl2·2H2O 2.5, Na-HEPES 20.0). Aortic rings were pre-incubated for 45 minutes at 37° C. with a pH 7.4, in Krebs-HEPES buffer containing diethylthiocarbamic acid (DETCA, 10^−3 M) to inactivate superoxide dismutase and β-nicotinamide adenine dinucleotide phosphate (NADPH, 10^−4 M) as a substrate for NADPH oxidase and either 3′,4′-dihydroxyflavonol (10^−4 M) as a positive control, vehicle, 3-hydroxyflavone-3-hemiadipate, 3′,4′-dihydroxy-3-hemiadipate, 3-hydroxyflavone-3-phosphate (10^−8-10^−4 M). Background photon emission was measured for 12 cycles in a 96-well Optiplate containing 0.3 ml per well of Krebs-HEPES buffer together with lucigenin (5×10^−5 M) and vehicle or flavonoid (10^−8-10^−4 M). Each cycle was counted every one minute. After background reading was completed the incubated aortic rings were transferred to the appropriate wells and photon emission was recounted as described above. The tissue was then placed in a 65° C. oven for 48 hours to allow superoxide production to be normalised to dry tissue weight.
The effects of vehicle, 3′,4′-dihydroxyflavone-3-hemiadipate (21) (DiOHF3HA, 10^−8 M-10^−4 M) and DiOHF (10^−4 M) in the presence and absence of Butyryl cholinesterase (BuCHE), 100, 300 and 1000 U/L) on the level of superoxide anions generated in rat isolated aortic segments in the presence of NADPH was expressed as a percentage of control. The method used was as described above except for the addition of the butyryl cholinesterase.
The effect of vehicle, 3-hydroxyflavone-3-phosphate (10^−8 to 10^−4 M) in the presence or absence of phosphatase (1000 U/L) on the level of superoxide anions generated in rat aorta in the presence of NADPH expressed as a percentage of control was determined as described above for the 3′,4′-dihydroxyflavone-3-hemiadipate.

Assay [2] relates to endothelium intact aortic rings. Briefly: Ca2+-induced contraction of rat aortic rings in Ca2+-free high-K+ solution. Type of assay: cell-based. The method, then: To determine the effect of flavonoids on responses to the influx of extracellular Ca^2+, contractile responses to exogenous application of Ca^2+ were examined in the presence of flavonoids in Ca^2+-free high-K^+ solution (60 mM, KPSS). Aortic rings were initially equilibrated at a resting tension of 1 g in normal Ca^2+-free PSS for 45 minutes. The bath medium was then replaced with Ca^2+-free KPSS for 45 minutes to determine a reference contraction to Ca^2+ (3×10^−3 M). Following a 30 minute re-equilibration period with Ca^2+-free PSS, the cumulative contractile responses to Ca^2+ (10^−5−3×10^−3 M) were determined in KPSS in the presence of a range of concentrations (10^−8-10^−4 M) of vehicle, 3′,4′-dihydroxyflavonol, 3-hydroxyflavone-3-hemiadipate, 3′,4′-dihydroxy-3-hemiadipate, 3-hydroxyflavone-3-phosphate. A 20 minute incubation period was allowed for the flavonoids before examining the responses to Ca^2+.
To determine the effect of flavonoids on responses to the influx of extracellular Ca^2+, contractile responses to exogenous application of Ca^2+ were examined in the presence of flavonoids in Ca^2+-free high-K^+ solution (60 mM, K+-PSS). Aortic rings were initially equilibrated at a resting tension of 1 g in Ca^2+-free PSS for 45 minutes. The bath medium was then replaced with Ca^2+-free K+-PSS for 45 minutes to determine a reference contraction to added Ca^2+ (3 mM). Following a 30 minute re-equilibration period with Ca^2+-free PSS, the cumulative contractile responses to Ca^2+ (10^−5−3×10^−3 M) were determined in K^+ PSS in the presence of vehicle (0.1% DMSO), or a range of concentrations (10^−7-10^−4 M) of 3′-hydroxyflavonol, F3HA, DiOHF3HA or F3P. A 20 minute incubation period was allowed for the flavonoids before examining the responses to Ca^2+. Experiments were conducted in the presence and absence of BuCHE (1000 U/L) to cleave the adipate in F3HA and DiOHF3HA. In experiments using F3P, phosphatase (1000 U/L) was used in some experiments to cleave the phosphate.

The test system is the same in assay [3]. Briefly: Effect on ACh relaxation of precontracted rat aortic rings. Type of assay: cell-based. The conditions noted are these: for Rmax of ACh relaxation: n=5. The method, then:
(§1) After wash out and re-equilibration for 30 min, the aortic rings were then submaximally precontracted with PE and U46619, which were used to produce an active tension of 45-60% of the KPSS-induced maximum contraction. When investigating the effects of the flavonoids, flavonol, flavone-3-hemiadipate (F3HA), 3′, 4′-dihydroxyflavone, 3′,4′-dihydroxyflavonol, 3′,4′-dihydroxyflavone-3-hemiadipate (DiOHF3HA), and flavone-3-phosphate (F3P) on vasorelaxant responses, rings were incubated with one of the compounds for 20 mins before they were precontracted submaximally, followed by a cumulative-concentration response curve to ACh (100 nM-10 μM) or SNP ([…]). In experiments using F3P 1000U/L phosphatase was used in some experiments to cleave the phosphate. Some experiments were conducted in the presence and absence of butyryl cholinesterase (BuCHE, 1000 U/L) to cleave the adipate in DiOHF3HA and F3HA.

In another assay the test system is aortic rings. The assay can be described thus: Effect on SNP relaxation of precontracted rat aortic rings. Type of assay: cell-based. The conditions noted are these: in the presence of BuCHE or phosphatase. The procedure: as §1
Assay [4] relates to endothelium-intact aortic rings treated with pyrogallol. The assay can be described thus: Vasorelaxation to ACh in the presence of oxidative stress (pyrogallol). The conditions noted are these: pyrogallol 2×10^−5 M, F3P plus phosphatase; disodium salt. It counts as cell-based, rat. The method, then:
Control cumulative relaxation responses to ACh were compared with those obtained from endothelium-intact aortic rings treated with pyrogallol (2×10^−5 M). The effects of vehicle (0.1% DMSO), phosphatase (1000 U/L) or F3P (10^−6-10^−4 M) on responses to ACh in the rat isolated aortic rings exposed to pyrogallol (2×10^−5 M) were also determined. Pyrogallol was added when the aortic rings had reached a stable level of contraction with PE and U44619 at a level between 50 and 70% of KPSS-induced tension and 10 minutes was allowed before determining the cumulative concentration-response curves to ACh. In some experiments using F3P 1000 U/L phosphatase was used to cleave the phosphate.

A further assay deals with anaesthetised rats. Briefly: Arterial pressure and heart rate in anaesthetised rats after intravenous injection. Type of assay: in vivo, rat. The conditions noted are these: intravenous, anaesthetised rats; disodium salt. The procedure: A unit dosage of an aqueous solution of 3-hydroxyflavone-3-hemiadipate (15) was administered to a group of male anesthetized Sprague Dawley rats intravenously and the blood pressure monitored over a period of time.
Male Sprague-Dawley rats (250-350 g) were anaesthetised with pentobarbitone sodium (60 mg kg^−1, ip). The trachea was isolated and cannulated with polyethylene tracheal tube (I.D. 2.0 mm), and the rat was allowed to breathe spontaneously.
The right carotid artery was cannulated and connected with a heparinised saline filled cannula (O.D. 0.75, I.D, 0.58 mm) and connected to a pressure transducer. Mean and phasic arterial pressure were continuously measured and recorded on a polygraph. The heart rate, was derived from the phasic arterial pressure using a tachometer.
DiOHF3HA ([…]) was injected intravenously, allowing at least 30 min between injections, and the peak changes in mean arterial pressure and heart rate measured. […] In a separate group of experiments ACh (0.3 mg/kg iv) and phenylephrine (PE, […]) were injected before and 30 minutes after DiOHF3HA (3 mg/kg iv), a time when arterial pressure and heart rate had returned to control levels. […]

“Also recorded” adds a separate entry of the source.

Regarding `O=c1c(OP(=O)([O-])[O-])c(-c2ccccc2)oc2ccccc12.[Na+].[Na+]` [F3P, 3-Hydroxyflavone-3-phosphate disodium salt], the “effect on superoxide generation” value in assay [1] (in the presence of cleaving enzyme (BuCHE for hemiadipates, phosphatase for phosphate, 1000 U/L)) is given as “concentration-dependent inhibition of superoxide levels; also recorded: inhibit superoxide levels produced by rat aorta”; in assay [1] (in the presence of cleaving enzyme (BuCHE for hemiadipates, phosphatase for phosphate, 1000 U/L), listed as flavone-3-phosphate), “concentration dependent decrease in the levels of superoxide”; in assay [1] (substance alone, no added esterase/phosphatase, up to 10^−4 M, NADPH), “no effect on superoxide generation; also recorded: no antioxidant or vascular activity”; in assay [1] (substance alone, no added esterase/phosphatase, up to 10^−4 M, NADPH, listed as 3-hydroxyflavone-3-phosphate), “measurable effect on the superoxide anion generation”. In addition, the “effect on Ca^2+-induced contraction” value in assay [2] (alone, highest concentration 10^−4 M) was “partial inhibition of the calcium-induced contraction”; in assay [2] (alone, over the concentration range tested), “small inhibition of calcium-induced contraction”; in assay [2] (in the presence of BuCHE or phosphatase (1000 U/L), listed as flavone-3-phosphate, disodium salt), “markedly enhanced the inhibitory effects”. Further, the “Rmax of ACh relaxation” value in assay [3] (F3P 10^−4 M + phosphatase) and in assay [3] (F3P 10^−5 M + phosphatase) was 100 ± 1 throughout. Also, the “effect on relaxant response to ACh” value in assay [3] (in the presence of phosphatase, disodium salt) is listed as “enhanced; also recorded: increased the sensitivity of rat aortic rings to relaxation by ACh”. Besides, the “effect on relaxant response to SNP” value in the assay on aortic rings was “not SNP”. In assay [4], the “maximum response to ACh under oxidant stress” value is recorded as “the response was restored; also recorded: enhance endothelium-dependent relaxation in the presence of oxidant stress”. The “change in heart rate (HR)” value with anaesthetised rats was “dose-dependent decrease in HR; also recorded: only small concentration dependent decreases”. In the assay with anaesthetised rats, the “change in mean arterial pressure (MAP)” value is on record as “dose-dependent decreases in MAP; also recorded: only small concentration dependent decreases”.

The values are drawn from patent publication US8017649B2, “Flavonoid compounds and uses thereof” (Howard Florey Institute of Experimental Physiology and …, priority 2005, dated 2011).
